Assay results from ChEMBL document CHEMBL1201862, “PubChem BioAssay data set” (2004).
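Briefly, cells in 96-well plates were exposed to five compound concentrations for 48 h, and endpoints were estimated by linear interpolation. Here, GI50 denotes the concentration required for 50% inhibition of growth.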 Calls of active or inactive are those of the source. Rule as the data show it: active = GI50 up to about 1.1 µM and inactive = higher.

How the values were obtained:
Test in all cases: NCI-60 cell line screen, 48 h
NCI-H23 = test system: NCI-H23
MCF7 = test system: MCF7
SF-539 = test system: SF-539
SR = test system: SR
HCT-15 = test system: HCT-15
NCI-H460 = test system: NCI-H460
HL-60 = test system: HL-60
TK-10 = test system: TK-10
U-251 = test system: U-251
OVCAR-3 = test system: OVCAR-3
SNB-19 = test system: SNB-19
CAKI-1 = test system: CAKI-1
A549 = test system: A549
Hs-578T = test system: Hs-578T
NCI-H522 = test system: NCI-H522
M14 = test system: M14
MDA-N = test system: MDA-N
LOX IMVI = test system: LOX IMVI
RPMI-8226 = test system: RPMI-8226
MOLT-4 = test system: MOLT-4

Structure (SMILES)	GI50 (NCI-H23)	GI50 (MCF7)	GI50 (SF-539)	GI50 (SR)	GI50 (HCT-15) [µM]	GI50 (NCI-H460)	GI50 (HL-60)	GI50 (TK-10)	GI50 (U-251)	GI50 (OVCAR-3)	GI50 (SNB-19)	GI50 (CAKI-1)	GI50 (A549)	GI50 (Hs-578T)	GI50 (NCI-H522)	GI50 (M14)	GI50 (MDA-N)	GI50 (LOX IMVI)	GI50 (RPMI-8226)	GI50 (MOLT-4)
COc1cc2c(cc1C)NC(=O)/C2=C\c1ccncc1	3.43 µM (inactive)	3.03 µM (inactive)	2.82 µM (inactive)	2.61 µM (inactive)	4.28	17.7 µM (inactive)	3.73 µM (inactive)	5.86 µM (inactive)	4.39 µM (inactive)	3.9 µM (inactive)	5.2 µM (inactive)	3.57 µM (inactive)	15.3 µM (inactive)	3.6 µM (inactive)	2.94 µM (inactive)	3.98 µM (inactive)				
CC(C)(C)OC(=O)NCCNCCNc1ccccc1	> 100 µM (inactive)	> 100 µM (inactive)	> 100 µM (inactive)	> 100 µM (inactive)	> 100	> 100 µM (inactive)		> 100 µM (inactive)	> 100 µM (inactive)	> 100 µM (inactive)	> 100 µM (inactive)	> 100 µM (inactive)	> 100 µM (inactive)		> 100 µM (inactive)	> 100 µM (inactive)	97.5 µM (inactive)	> 100 µM (inactive)	> 100 µM (inactive)	> 100 µM (inactive)
CCOC(=O)C1C(c2ccco2)C2(C#N)C(=N)OC1(C)C2(C#N)C#N (stereo not given)	> 100 µM (inactive)	> 100 µM (inactive)	> 100 µM (inactive)		33.1		> 10 µM (inactive)	> 100 µM (inactive)	> 100 µM (inactive)		> 100 µM (inactive)	> 100 µM (inactive)	> 100 µM (inactive)	> 100 µM (inactive)	> 100 µM (inactive)	> 100 µM (inactive)	> 100 µM (inactive)	> 100 µM (inactive)	> 100 µM (inactive)	> 100 µM (inactive)
Cc1ccc2[nH]c3c(c2c1)CCC/C3=N/N=C(N)N	3.06 µM (inactive)	1.44 µM (inactive)	1.62 µM (inactive)	2.22 µM (inactive)		1.4 µM (inactive)	9.4 µM (inactive)		2.1 µM (inactive)	2.64 µM (inactive)	1.99 µM (inactive)	1.39 µM (inactive)	1.89 µM (inactive)		1.87 µM (inactive)	1.57 µM (inactive)	1.49 µM (inactive)	1.84 µM (inactive)	2.5 µM (inactive)	2.09 µM (inactive)
Cc1ccc2nc(N/N=C/c3sccc3C)cc(C)c2c1	> 100 µM (inactive)	25.3 µM (inactive)			> 100		28.4 µM (inactive)	29.1 µM (inactive)	92.7 µM (inactive)	> 100 µM (inactive)	48.2 µM (inactive)	> 100 µM (inactive)	83.9 µM (inactive)	83.2 µM (inactive)		> 100 µM (inactive)	> 100 µM (inactive)	> 100 µM (inactive)		> 100 µM (inactive)
COc1c(Cl)cc(NC(=S)C#N)cc1Cl	19.3 µM (inactive)	24.4 µM (inactive)	23.8 µM (inactive)	23.8 µM (inactive)	18.4	23.9 µM (inactive)	> 100 µM (inactive)	33.8 µM (inactive)	17.7 µM (inactive)	20.8 µM (inactive)	32.9 µM (inactive)	22.7 µM (inactive)	23.4 µM (inactive)		19.4 µM (inactive)	24.5 µM (inactive)	25.5 µM (inactive)	20 µM (inactive)	22.8 µM (inactive)	32.9 µM (inactive)
CC(C)=CCc1c2c(c3occ(-c4ccc(O)cc4)c(=O)c3c1O)CC(C(C)(C)O)O2 (stereo not given) [SENEGALENSIN]	18.7 µM (inactive)	12.8 µM (inactive)	20.1 µM (inactive)		13.1	12.5 µM (inactive)	12.4 µM (inactive)	16.5 µM (inactive)	13.2 µM (inactive)	14.4 µM (inactive)	16.4 µM (inactive)	18.8 µM (inactive)	13 µM (inactive)	36.1 µM (inactive)	15.8 µM (inactive)	14.5 µM (inactive)	21.4 µM (inactive)	14.9 µM (inactive)	9.77 µM (inactive)	11.7 µM (inactive)
CCCC(=O)OCC(COC(=O)CCC)OC(=O)CCC [TRIBUTYRIN]	> 100 µM (inactive)	> 100 µM (inactive)	62.8 µM (inactive)		> 100	99.8 µM (inactive)	33.3 µM (inactive)	27.3 µM (inactive)	53 µM (inactive)	> 100 µM (inactive)	> 100 µM (inactive)	49.1 µM (inactive)	96.6 µM (inactive)	57.9 µM (inactive)	17.9 µM (inactive)	58.5 µM (inactive)	65.2 µM (inactive)	82 µM (inactive)	17.1 µM (inactive)	73.5 µM (inactive)
